Test results as given in patent US9938258B2 (Karyopharm Therapeutics Inc., priority 2012, dated 2018).
Counter-ions that a name gives are not always drawn. Like-named read-outs stand apart in the source and are kept apart here.

Legend:
Z138 cells = assay: MTT cell proliferation assay, Z138; type: cell-based; settings: Homo sapiens, Z-138, Z138 cells, read-out: MTT Assay IC50, Z138
Experimental: (§1) The MTT cell proliferation assay was used to study the cytotoxic properties of the compounds. The assay was performed according to the method described by Roche Molecular Biochemicals, with minor modifications. The assay is based on the cleavage of the tetrazolium salt, MTT, in the presence of an electron-coupling reagent. The water-insoluble formazan salt produced must be solubilized in an additional step. Cells grown in a 96-well tissue culture plate were incubated with the MTT solution for approximately 4 hours. After this incubation period, a water-insoluble formazan dye formed. After solubilization, the formazan dye was quantitated using a scanning multi-well spectrophotometer (ELISA reader). […] The cells were seeded at 5,000-10,000 cells in each well of 96-well plate in 100 μL of fresh culture medium and were allowed to attach overnight. The stock solutions of the compounds were diluted in 100 μL cell culture medium to obtain eight concentrations of each test compound, ranging from 1 nM to 30 μM. […] All optical densities were measured at 490 nm using a Vmax Kinetic Microplate Reader (Molecular Devices). In most cases, the assay was performed in duplicate and the results were presented as a mean percent inhibition to the negative control±SE. The following formula was used to calculate the percent of inhibition: Inhibition (%)=(1-(ODo/OD)) ×100.
(§2) The compounds were tested against MS751, Z138 and 3T3 cells. The MS751 cell line is derived from a metastasis to lymph node of human cervix from a patient diagnosed with squameous cell carcinoma of the cervix. The Z138 cell line is a mature B-cell acute lymphoblastic leukemia cell line derived from a patient with chronic lumphocytic leukemia. 3T3 cells are standard fibroblast cells; they were originally isolated from Swiss mouse embryo tissue.

3T3 cells = assay: MTT cell proliferation assay, 3T3; type: cell-based, mouse; settings: Mus musculus, NIH3T3, 3T3 cells, read-out: MTT Assay IC50, 3T3
Experimental: as §1, §2

MS751 cells = assay: MTT cell proliferation assay, MS751; type: cell-based, human; settings: Homo sapiens, MS751, MS751 cells, read-out: MTT Assay IC50, MS751
Experimental: as §1, §2

[1] = eight concentrations 1 nM to 30 μM, incubation approximately 64-72 hours
[2] = approximately 64-72 hours incubation

O=C(/C=C/c1cccnc1)NCC1Cc2cc(-c3ccc(C(=O)N4CCOCC4)cc3)cc(Cl)c2O1 (stereo not drawn) [Compound 29]
IC50 (Z138 cells; [1]): < 0.1 µM | IC50 (3T3 cells; [1]): 0.1 to 5 µM | IC50 (MS751 cells; [1]): < 0.1 µM

CCOC(=O)c1cccc(-c2cc(Cl)c3c(c2)CC(CNC(=O)/C=C/c2cccnc2)O3)c1 (stereo not drawn) [Compound 52, (E)-ethyl 3-(7-chloro-2-((3-(pyridin-3-yl)acrylamido)methyl)-2,3-dihydrobenzofuran-5-yl)benzoate]
IC50 (Z138 cells; [1]): 0.1 to 5 µM | IC50 (3T3 cells; [1]): 0.1 to 5 µM | IC50 (MS751 cells; [1]): 0.1 to 5 µM

CC(=O)c1ccc(-c2cc(Cl)c3c(c2)CC(CNC(=O)/C=C/c2cccnn2)O3)s1 (stereo not drawn) [Compound 279, (E)-N-((5-(5-acetylthiophen-2-yl)-7-chloro-2,3-dihydrobenzofuran-2-yl)methyl)-3-(pyridazin-3-yl)acrylamide]
IC50 (Z138 cells; [1]): 0.1 to 5 µM | IC50 (3T3 cells; [1]): 0.1 to 5 µM | IC50 (MS751 cells; [1]): 0.1 to 5 µM

CC(=O)c1ccc(-c2cc(Cl)c3c(c2)CC(CNC(=O)/C=C(\C)c2cccnc2)O3)s1 (stereo not drawn) [Compound 283, (E)-N-((5-(5-acetylthiophen-2-yl)-7-chloro-2,3-dihydrobenzofuran-2-yl)methyl)-3-(pyridin-3-yl)but-2-enamide]
IC50 (Z138 cells; [2]): 5 to 30 µM | IC50 (3T3 cells; [2]): > 30 µM | IC50 (MS751 cells; [2]): 5 to 30 µM

O=C(/C=C/c1cccnc1)NCC1Cc2cc(-c3cc(F)c(F)c(F)c3)cc(Cl)c2O1 (stereo not drawn) [Compound 21, (E)-N-((7-chloro-5-(3,4,5-trifluorophenyl)-2,3-dihydrobenzofuran-2-yl)methyl)-3-(pyridin-3-yl)acrylamide]
IC50 (Z138 cells; [1]): 0.1 to 5 µM | IC50 (3T3 cells; [1]): > 30 µM | IC50 (MS751 cells; [1]): 0.1 to 5 µM

CC(=O)c1ccc(-c2cc(Cl)c3c(c2)CC(CNC(=O)/C=C/c2cnccn2)O3)s1 (stereo not drawn) [Compound 258, (E)-N-((5-(5-acetylthiophen-2-yl)-7-chloro-2,3-dihydrobenzofuran-2-yl)methyl)-3-(pyrazin-2-yl)acrylamide]
IC50 (Z138 cells; [1]): > 30 µM | IC50 (3T3 cells; [1]): > 30 µM | IC50 (MS751 cells; [1]): > 30 µM

CCOC(=O)c1ccc(-c2cc(Cl)c3c(c2)CC(CNC(=O)/C=C/c2cccnc2)O3)cc1 (stereo not drawn) [Compound 128, (E)-ethyl 4-(7-chloro-2-((3-(pyridin-3-yl)acrylamido)methyl)-2,3-dihydrobenzofuran-5-yl)benzoate]
IC50 (Z138 cells; [1]): < 0.1 µM | IC50 (3T3 cells; [1]): 0.1 to 5 µM | IC50 (MS751 cells; [1]): 0.1 to 5 µM

CC(=O)c1ccc(-c2cc(Cl)c3c(c2)CC(CNC(=O)/C=C/c2c(C)nn(-c4ccc(F)cc4)c2C)O3)s1 (stereo not drawn) [Compound 208, (E)-N-((5-(5-acetylthiophen-2-yl)-7-chloro-2,3-dihydrobenzofuran-2-yl)methyl)-3-(1-(4-fluorophenyl)-3,5-dimethyl-1H-pyrazol-4-yl)acrylamide]
IC50 (Z138 cells; [2]): 5 to 30 µM | IC50 (3T3 cells; [2]): > 30 µM | IC50 (MS751 cells; [2]): 5 to 30 µM

CC(=O)c1ccc(-c2ccc(Cl)c3c2CC(CNC(=O)/C=C/c2ccc(N)nc2)O3)s1 (stereo not drawn) [Compound 218, hydrochloride]
IC50 (Z138 cells; [2]): < 0.1 µM | IC50 (3T3 cells; [2]): 5 to 30 µM | IC50 (MS751 cells; [2]): < 0.1 µM

CC(=O)c1ccc(-c2cc(Cl)c3c(c2)CC(CNC(=O)/C=C/c2cnc(C(C)(C)C)s2)O3)s1 (stereo not drawn) [Compound 205, (E)-N-((5-(5-acetylthiophen-2-yl)-7-chloro-2,3-dihydrobenzofuran-2-yl)methyl)-3-(2-tert-butylthiazol-5-yl)acrylamide]
IC50 (Z138 cells; [2]): 0.1 to 5 µM | IC50 (3T3 cells; [2]): > 30 µM | IC50 (MS751 cells; [2]): 5 to 30 µM

CC(=O)c1ccc(-c2cc(Cl)c3c(c2)CC(CNC(=O)/C=C/c2cccnc2C)O3)s1 (stereo not drawn) [Compound 182, (E)-N-((5-(5-acetylthiophen-2-yl)-7-chloro-2,3-dihydrobenzofuran-2-yl)methyl)-3-(2-methylpyridin-3-yl)acrylamide]
IC50 (Z138 cells; [1]): > 30 µM | IC50 (3T3 cells; [1]): > 30 µM | IC50 (MS751 cells; [1]): 5 to 30 µM

CC(=O)c1ccc(-c2cc(Cl)c3c(c2)CC(CNC(=O)/C=C/c2ccc(C)nc2C)O3)s1 (stereo not drawn) [Compound 174, (E)-N-((5-(5-acetylthiophen-2-yl)-7-chloro-2,3-dihydrobenzofuran-2-yl)methyl)-3-(2,6-dimethylpyridin-3-yl)acrylamide]
IC50 (Z138 cells; [1]): > 30 µM | IC50 (3T3 cells; [1]): > 30 µM | IC50 (MS751 cells; [1]): > 30 µM

CC(=O)c1ccc(-c2cc(Cl)c3c(c2)CC(CNC(=O)/C=C/c2c(C)nn(C)c2Cl)O3)s1 (stereo not drawn) [Compound 160, (E)-N-((5-(5-acetylthiophen-2-yl)-7-chloro-2,3-dihydrobenzofuran-2-yl)methyl)-3-(5-chloro-1,3-dimethyl-1H-pyrazol-4-yl)acrylamide]
IC50 (Z138 cells; [1]): > 30 µM | IC50 (3T3 cells; [1]): > 30 µM | IC50 (MS751 cells; [1]): > 30 µM

CC1(F)CN(C(=O)c2ccc(-c3cc(Cl)c4c(c3)CC(/C=C/C(=O)NCc3ccc(N)nc3)O4)cc2)C1 (stereo not drawn) [Compound 366, (E)-N-((6-aminopyridin-3-yl)methyl)-3-(7-chloro-5-(4-(3-fluoro-3-methylazetidine-1-carbonyl)phenyl)-2,3-dihydrobenzofuran-2-yl)acrylamide]
IC50 (Z138 cells; [2]): > 30 µM | IC50 (3T3 cells; [2]): 0.1 to 5 µM | IC50 (MS751 cells; [2]): > 30 µM

Nc1ccc(/C=C/C(=O)NCC2Cc3cc(-c4ccc(CC(=O)N5CCOCC5)cc4)cc(Cl)c3O2)cn1 (stereo not drawn) [Compound 921, (E)-3-(6-aminopyridin-3-yl)-N-((7-chloro-5-(4-(2-morpholino-2-oxoethyl)phenyl)-2,3-dihydrobenzofuran-2-yl)methyl)acrylamide]
IC50 (Z138 cells; [2]): < 0.1 µM | IC50 (3T3 cells; [2]): 0.1 to 5 µM | IC50 (MS751 cells; [2]): < 0.1 µM

Nc1ccc(/C=C/C(=O)NCC2Cc3cc(-c4cnc(C(=O)N5CCOCC5)nc4)cc(Cl)c3O2)cn1 (stereo not drawn) [Compound 323, (E)-3-(6-aminopyridin-3-yl)-N-((7-chloro-5-(2-(morpholine-4-carbonyl)pyrimidin-5-yl)-2,3-dihydrobenzofuran-2-yl)methyl)acrylamide]
IC50 (Z138 cells; [2]): 0.1 to 5 µM | IC50 (3T3 cells; [2]): 5 to 30 µM | IC50 (MS751 cells; [2]): 0.1 to 5 µM

CC(=O)c1ccc(-c2cc(Cl)c3c(c2)CC(CNC(=O)/C=C/c2csnn2)O3)s1 (stereo not drawn) [Compound 281, (E)-N-((5-(5-acetylthiophen-2-yl)-7-chloro-2,3-dihydrobenzofuran-2-yl)methyl)-3-(1,2,3-thiadizol-5-yl)acrylamide]
IC50 (Z138 cells; [2]): > 30 µM | IC50 (3T3 cells; [2]): > 30 µM | IC50 (MS751 cells; [2]): > 30 µM

CN(C)C(=O)c1ccc(-c2cc(Cl)c3c(c2)CC(CNC(=O)/C=C/c2ccc(N)nc2)O3)o1 (stereo not drawn) [Compound 324, (E)-5-(2-((3-(6-Aminopyridin-3-yl)acrylamido)methyl)-7-chloro-2,3-dihydrobenzofuran-5-yl)-N,N-dimethylfuran-2-carboxamide]
IC50 (Z138 cells; [2]): < 0.1 µM | IC50 (3T3 cells; [2]): 5 to 30 µM | IC50 (MS751 cells; [2]): < 0.1 µM

CC(=O)c1ccc(-c2cc(Cl)c3c(c2)CC(CNC(=O)/C=C/c2c(C)nn4c(C(F)(F)F)ccnc24)O3)s1 (stereo not drawn) [Compound 287, (E)-N-((5-(5-acetylthiophen-2-yl)-7-chloro-2,3-dihydrobenzofuran-2-yl)methyl)-3-(2-methyl-7-(trifluoromethyl)pyrazolo[1,5-a]pyrimidin-3-yl) acryl amide]
IC50 (Z138 cells; [2]): > 30 µM | IC50 (3T3 cells; [2]): > 30 µM | IC50 (MS751 cells; [2]): > 30 µM

Nc1ccc(/C=C/C(=O)NCC2Cc3c(-c4ccccc4C(=O)N4CC(F)(F)C4)ccc(Cl)c3O2)cn1 (stereo not drawn) [Compound 341, (E)-3-(6-aminopyridin-3-yl)-N-((7-chloro-4-(2-(3,3-difluoroazetidine-1-carbonyl)phenyl)-2,3-dihydrobenzofuran-2-yl)methyl)acrylamide]
IC50 (Z138 cells; [2]): 0.1 to 5 µM | IC50 (3T3 cells; [2]): < 0.1 µM | IC50 (MS751 cells; [2]): < 0.1 µM

CC(=O)c1ccc(-c2cc(Cl)c3c(c2)CC(CNC(=O)/C=C/c2ccc(Cl)nc2)O3)s1 (stereo not drawn) [Compound 45, (E)-N-((5-(5-acetylthiophen-2-yl)-7-chloro-2,3-dihydrobenzofuran-2-yl)methyl)-3-(6-chloropyridin-3-yl)acrylamide]
IC50 (Z138 cells; [1]): > 30 µM | IC50 (3T3 cells; [1]): > 30 µM | IC50 (MS751 cells; [1]): > 30 µM

Nc1ccc(/C=C/C(=O)NCC2Cc3cc(-c4ccc(S(=O)(=O)N5CCOCC5)cc4)cc(Cl)c3O2)cn1 (stereo not drawn) [Compound 914, (E)-3-(6-aminopyridin-3-yl)-N-((7-chloro-5-(4-(morpholinosulfonyl)phenyl)-2,3-dihydrobenzofuran-2-yl)methyl)acrylamide]
IC50 (Z138 cells; [2]): < 0.1 µM | IC50 (3T3 cells; [2]): 0.1 to 5 µM | IC50 (MS751 cells; [2]): < 0.1 µM

Nc1ccc(CNC(=O)/C=C/C2Cc3cc(-c4ccc(S(=O)(=O)N5CCOCC5)cc4)cc(Cl)c3O2)cn1 (stereo not drawn) [Compound 350, (E)-N-((6-aminopyridin-3-yl)methyl)-3-(7-chloro-5-(4-(morpholinosulfonyl)phenyl)-2,3-dihydrobenzofuran-2-yl)acrylamide]
IC50 (Z138 cells; [2]): > 30 µM | IC50 (3T3 cells; [2]): 0.1 to 5 µM | IC50 (MS751 cells; [2]): 0.1 to 5 µM
